From PMC5919655, “Practical spectrophotometric assay for the dapE-encoded N-succinyl-L,L-diaminopimelic acid desuccinylase, a potential antibiotic target” (PLoS ONE, 2018)

Assays:
[1] = biological target: T1, succinyl-diaminopimelate desuccinylase (HiDapE) (Haemophilus influenzae, UniProt P44514); experiment: hydrolysis by purified HiDapE monitored at […] nm (kcat/Km); type: biochemical
T1 construct: gene dapE; recombinant HiDapE, His6-tag cleaved with TEV protease

[2] = biological target: T1, succinyl-diaminopimelate desuccinylase (HiDapE); experiment: ninhydrin-based assay of purified HiDapE with N6-methyl-L,L-SDAP substrate, […] nm; type: biochemical

T1 sequence (P44514 whole entry): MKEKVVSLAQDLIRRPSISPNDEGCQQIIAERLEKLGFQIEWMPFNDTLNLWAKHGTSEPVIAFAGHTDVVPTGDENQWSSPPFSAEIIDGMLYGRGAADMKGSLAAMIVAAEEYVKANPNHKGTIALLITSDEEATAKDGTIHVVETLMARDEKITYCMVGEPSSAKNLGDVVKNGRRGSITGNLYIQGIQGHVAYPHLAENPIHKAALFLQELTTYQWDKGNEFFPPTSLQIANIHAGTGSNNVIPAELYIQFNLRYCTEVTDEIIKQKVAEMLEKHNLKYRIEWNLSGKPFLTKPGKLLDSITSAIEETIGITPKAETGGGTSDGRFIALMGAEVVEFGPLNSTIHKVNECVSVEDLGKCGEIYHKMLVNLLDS

Row | Structure (SMILES) | hydrolysis by purified HiDapE monitored at 225 nm (kcat/Km) [1] | IC50 [2] [µM]
1 | CN[C@@H](CCC[C@H](NC(=O)CCC(=O)O)C(=O)O)C(=O)O [1b, (2S,6S)-2-(3-Carboxypropanamido)-6-(methylamino)heptanedioic acid] | 3.87x 10^4 M^-1S^-1 | 
2 | OB(O)c1cccs1 [2-thiopheneboronic acid] |  | 111
3 | O=C(O)c1cccc(S)c1 [3-mercaptobenzoic acid] |  | 21.8
